Values quoted from earlier work in patent US20030206884A1, “Embalming fluid” (AARD-BALM LIMITED, priority 2000, published 2003).

Tested on: eyes, nose and throat

C=O [formaldehyde]
airborne concentration causing irritation of the eyes, nose and throat: above 0.1 ppm
airborne concentration that is a danger to life and health: 100 ppm
